Values of other authors as cited in patent publication US20260108502A1, “ORAL DELIVERY FORMULATIONS USING SELF EMULSIFYING GRANULES AND LIPID BASED GRANULES” (BOARD OF REGENTS, THE UNIVERSITY OF TEXAS SYSTEM, priority 2024, published 2026).

strongest basic pKa: 2.84
Compound: CC(C)c1nc(CN(C)C(=O)N[C@H](C(=O)N[C@@H](Cc2ccccc2)C[C@H](O)[C@H](Cc2ccccc2)NC(=O)OCc2cncs2)C(C)C)cs1 [Ritonavir]
